Assays:
[1] = test system: ATX; details: ATX activity fully restored upon washing out the inhibitor; cited from earlier work
[2] = cited from earlier work
[3] = target: recombinant ATX (Homo sapiens, UniProt Q13822); assay: Choline release assay; type: biochemical; details: for residual ATX activity: at maximal inhibition in the dose-response curve (Figure S3)

## O=C1S/C(=C\c2ccc(OCc3ccc(B(O)O)cc3)cc2)C(=O)N1Cc1ccc(F)cc1 [inhibitor 1, (Z)-4-[(4-{[3-(4-Fluorobenzyl)-2,4-dioxo-1,3-thiazolan-5-yliden]methyl}phenoxy)methyl]benzene Boronic Acid]
[1]
  reversibility of binding to ATX: reversible

## lysophosphatidic acid [LPA]
[2]
  half-life of LPA in vivo: ~5 min

## O=C(Nc1ccc(/C=C2\SC(=O)N(Cc3ccc(F)cc3)C2=O)cc1)c1ccc(B(O)O)cc1 [inhibitor 19]
[3]
  residual ATX activity: 10%

## O=C(Nc1ccc(B(O)O)cc1)c1ccc(/C=C2\SC(=O)N(Cc3ccc(F)cc3)C2=O)cc1 [inhibitor 17]
[3]; Figure S2, n=5
  shape of dose-response curve: biphasic curve

## O=C1S/C(=C\c2ccc(NCc3ccc(B(O)O)cc3)cc2)C(=O)N1Cc1ccc(F)cc1 [inhibitor 36]
[3]
  residual ATX activity: no residual ATX activity

Reference: paper PMC3131786 (Journal of Medicinal Chemistry, 2011)
